Measurements: patent US11780901B2, “Analogues of parathyroid hormone (1-34) that function as agonists of the parathyroid hormone receptor-1 and display modified activity profiles” (Wisconsin Alumni Research Foundation, priority 2013, dated 2023)
Where two headings read alike, the source gives them in different places. Starred links: 1 amine or outer side, 2 acyl side, 3 side chain; linkers in the order of their positions; H or OH if unused. Non-standard residues stand in square brackets, D forms with d. Residues, ends and D or L forms follow the SMILES beside them. X2 = CCCC[C@@H](CN[*:1])C(=O)[*:2]; X1 = CCCC[C@H](CN[*:1])C(=O)[*:2]

Experiments:
[1] = system: PTHR1; assay: β-arr1 | pEC50
[2] = system: PTHR1; assay: β-arr2 | pEC50
[3] = system: PTHR1; assay: cAMP | pEC50
From the text: Table printed on a drawing sheet, FIG. 5
(§1) Head of the field: cAMP | pEC50
The patent's description of the figure: FIG. 5 depicts graphs and a corresponding table reporting the EC50 and Emax of PTHR1 agonists Ligands 8-13 (SEQ. ID. NOS: 8-13) for cAMP signaling and β-arrestin (βarr) recruitment.
First copying reader's note: Each value cell carries its own ± error; the rows for Ligand 8, 10 and 12 are printed on dark shading.
Where the first naming reader finds the target: description_of_the_figure: EC50 and Emax of PTHR1 agonists Ligands 8-13 (SEQ. ID. NOS: 8-13) for cAMP signaling and β-arrestin (βarr) recruitment.

[4] = system: PTHR1; assay: β-arr2 | pEC50; remark: listed apart in the source
[5] = system: PTHR1; assay: β-arr1 | pEC50; remark: listed apart in the source
[6] = system: PTHR1; assay: cAMP | pEC50; remark: listed apart in the source
From the text: Table printed on a drawing sheet, FIG. 2
as §1
First copying reader's note: The error (±) stands inside the result cells.

[7] = target: T1, PTHR1 (Homo sapiens, UniProt Q03431); assay: PTHR1 activation, cAMP production (GloSensor) in HEK293 cells; type: cell-based; parameters: expressed in transfected cells; settings: for PTHR1 Activation: Derivative EC50/PTH EC50: normalized to EC50 of PTH(1-34)-NH2 ([…]), cAMP production
T1 sequence (Q03431 27-593): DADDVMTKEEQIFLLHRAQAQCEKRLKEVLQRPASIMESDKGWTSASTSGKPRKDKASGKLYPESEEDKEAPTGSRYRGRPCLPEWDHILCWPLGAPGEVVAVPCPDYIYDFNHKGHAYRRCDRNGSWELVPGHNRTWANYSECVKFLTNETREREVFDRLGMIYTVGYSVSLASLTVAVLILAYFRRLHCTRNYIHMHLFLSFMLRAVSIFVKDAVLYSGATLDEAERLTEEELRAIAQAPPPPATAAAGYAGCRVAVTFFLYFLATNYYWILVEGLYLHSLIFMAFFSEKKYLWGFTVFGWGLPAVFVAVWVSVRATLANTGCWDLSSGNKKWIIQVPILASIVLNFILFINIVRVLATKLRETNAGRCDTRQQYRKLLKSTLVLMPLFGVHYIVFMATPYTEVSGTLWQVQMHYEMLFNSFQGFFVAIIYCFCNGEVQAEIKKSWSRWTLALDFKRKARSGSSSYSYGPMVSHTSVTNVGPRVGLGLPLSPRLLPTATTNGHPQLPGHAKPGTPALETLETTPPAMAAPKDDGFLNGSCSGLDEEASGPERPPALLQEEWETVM

[8] = target: T2, PTHR2 (Homo sapiens, UniProt P49190); assay: PTHR2 activation, cAMP production (GloSensor) in HEK293 cells; type: cell-based; parameters: expressed in transfected cells; key to PTHR2 Activation: Derivative EC50/PTH EC50: *** denotes poor tolerance of β amino acid for PTHR2 activation; settings: for PTHR2 Activation: Derivative EC50/PTH EC50: normalized to EC50 of PTH(1-34)-NH2 ([…] printed), cAMP production
Method in brief: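 HEK293 cells stably expressing PTHR2; receptor activation read as cAMP production by GloSensor luminescence. Dose-response curves fit with a four-parameter sigmoidal equation; data are mean±s.e.m. of four independent measurements.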

[9] = system: PTHR1 and PTHR2; assay: Tolerance pattern of β residues for PTHR1 and PTHR2 activation; type: cell-based; parameters: key: “*” denotes potent PTHR1-selective agonism; “#” denotes potent PTHR2-selective agonism; “*#” denotes potent agonism of both PTHR1 and PTHR2; settings: PTHR1 vs PTHR2 agonism
From the text: Enhanced selectivity via double α→β replacement.

[10] = target: T2, PTHR2; assay: Wash-out assay, duration of PTHR2 activation; type: cell-based; parameters: expressed in transfected cells; host or cells: cells stably expressing PTHR2
From the text: (§2) Duration of activation for PTHR1 and PTHR2. To assess the duration of PTHR1 and PTHR2 activation induced by α/β-peptides 14 and 15, the time course of cAMP production by each receptor was examined after stimulation with an agonist and subsequent washing of the cells to remove unbound peptide (wash-out assay). […] During the initial “ligand-on” phase, cells stably expressing PTHR1 or PTHR2 were stimulated with an agonist concentration corresponding to ˜EC80; the medium contained D-luciferin. […] After the addition of fresh medium containing D-luciferin, the luminescence decay is measured. The area under the “ligand-off” curve (AUC) reflects the duration of signaling, which may be related to residence time of the agonist on the receptor but could have other origins at the molecular level.

[11] = target: T1, PTHR1; assay: Wash-out assay, duration of PTHR1 activation; type: cell-based; parameters: expressed in transfected cells; host or cells: cells stably expressing PTHR1
From the text: as §2

[12] = HEK-293 cells, GloSensor cAMP, read-out: EC50 (nM) of PTHR1 Activation
[13] = HEK-293 cells, GloSensor cAMP, read-out: EC50 (nM) of PTHR2 Activation
[14] = read-out: Normalized ligand-on Emax

T2 sequence (P49190 25-550): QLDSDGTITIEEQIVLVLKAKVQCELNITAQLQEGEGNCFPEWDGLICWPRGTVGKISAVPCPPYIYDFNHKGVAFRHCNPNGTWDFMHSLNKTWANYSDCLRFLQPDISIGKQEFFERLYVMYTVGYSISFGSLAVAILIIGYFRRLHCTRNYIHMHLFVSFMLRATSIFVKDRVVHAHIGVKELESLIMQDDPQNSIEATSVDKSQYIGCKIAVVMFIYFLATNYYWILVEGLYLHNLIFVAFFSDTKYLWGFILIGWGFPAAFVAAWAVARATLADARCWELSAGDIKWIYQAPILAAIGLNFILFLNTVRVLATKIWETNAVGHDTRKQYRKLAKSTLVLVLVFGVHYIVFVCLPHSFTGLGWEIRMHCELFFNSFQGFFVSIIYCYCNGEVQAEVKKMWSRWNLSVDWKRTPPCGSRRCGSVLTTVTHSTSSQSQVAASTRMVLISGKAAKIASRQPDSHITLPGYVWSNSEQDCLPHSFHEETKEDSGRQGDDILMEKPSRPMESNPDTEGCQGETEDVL

Molecule: Ligand 13: PTH(1-34) analogue with replaced residue at position 8 (character image) (SVSEIQLXHNLGKHLNSMERVEWLRKKLQDVHNF; non-natural residue at position 8; MOD_RES (8)..(8) X at position 8 is (S*)-Beta-2-Norleucine)
- β-arr1 | pEC50 [1]: 8.03 ± 0.10
- β-arr2 | pEC50 [2]: 8.16 ± 0.09
- cAMP | pEC50 [3]: 9.44 ± 0.08

Molecule: LA-PTH: long-acting PTH analog (AVAEIQLMHQRAKWIQDARRRAFLHKLIAEIHTAEI; Long-acting (LA)-PTH, a parathyroid hormone analog)
- β-arr2 | pEC50 [4]: 8.20 ± 0.06
- β-arr1 | pEC50 [5]: 8.16 ± 0.06
- cAMP | pEC50 [6]: 9.06 ± 0.06

Molecule: CCCC[C@@H](CNC(=O)[C@H](CC(C)C)NC(=O)[C@H](CCC(N)=O)NC(=O)[C@@H](NC(=O)[C@H](CCC(=O)O)NC(=O)[C@H](CO)NC(=O)[C@@H](NC(=O)[C@@H](N)CO)C(C)C)[C@@H](C)CC)C(=O)N[C@@H](Cc1c[nH]cn1)C(=O)N[C@@H](CC(N)=O)C(=O)N[C@@H](CC(C)C)C(=O)NCC(=O)N[C@@H](CCCCN)C(=O)N[C@@H](Cc1c[nH]cn1)C(=O)N[C@@H](CC(C)C)C(=O)N[C@@H](CC(N)=O)C(=O)N[C@@H](CO)C(=O)N[C@@H](CCSC)C(=O)N[C@@H](CCC(=O)O)C(=O)N[C@@H](CCCNC(=N)N)C(=O)N[C@H](C(=O)N[C@@H](CCC(=O)O)C(=O)N[C@@H](Cc1c[nH]c2ccccc12)C(=O)N[C@@H](CC(C)C)C(=O)N[C@@H](CCCNC(=N)N)C(=O)N[C@@H](CCCCN)C(=O)N[C@@H](CCCCN)C(=O)N[C@@H](CC(C)C)C(=O)N[C@@H](CCC(N)=O)C(=O)N[C@@H](CC(=O)O)C(=O)N[C@H](C(=O)N[C@@H](Cc1c[nH]cn1)C(=O)N[C@@H](CC(N)=O)C(=O)N[C@@H](Cc1ccccc1)C(N)=O)C(C)C)C(C)C [SEQ. ID. NO: 37] (H-SVSEIQL[X2]HNLGKHLNSMERVEWLRKKLQDVHNF-NH2; N-terminus assumed)
- EC50 [7, 12]: 0.38 ± 0.07 nM
- EC50 ([7]; Table 8, hPTHR1, read-out: PTHR1 EC50): 10.3 ± 1.65 nM
- PTHR1 Activation: Derivative EC50/PTH EC50 [7]: 1.00
- EC50 [8, 13]: 10.3 ± 1.65 nM
- PTHR2 Activation: Derivative EC50/PTH EC50 [8]: 11.85
- Tolerance Pattern of β AA [9]: *

Molecule: SVSEIQL^nLHNLGKHLNSMERVEWLRKKLQDVHNF (SVSEIQLXHNLGKHLNSMERVEWLRKKLQDVHNF; (R)-beta2-Nle at position 8; MOD_RES (8)..(8) X at position 8 is (R)-Beta-2-Norleucine.) [Ligand 11]
- β-arr1 | pEC50 [1]: 8.33 ± 0.05
- β-arr2 | pEC50 [2]: 8.28 ± 0.02
- cAMP | pEC50 [3]: 9.03 ± 0.10

Molecule: BA058: also known as abaloparatide
- β-arr2 | pEC50 [4]: 8.52 ± 0.06
- β-arr1 | pEC50 [5]: 8.38 ± 0.12
- cAMP | pEC50 [6]: 10.05 ± 0.05

Molecule: CCCC[C@H](CNC(=O)[C@H](CC(C)C)NC(=O)[C@H](CCC(N)=O)NC(=O)[C@@H](NC(=O)[C@H](CCC(=O)O)NC(=O)[C@H](CO)NC(=O)[C@@H](NC(=O)[C@@H](N)CO)C(C)C)[C@@H](C)CC)C(=O)N[C@@H](Cc1c[nH]cn1)C(=O)N[C@@H](CC(N)=O)C(=O)N[C@@H](CC(C)C)C(=O)NCC(=O)N[C@@H](CCCCN)C(=O)N[C@@H](Cc1c[nH]cn1)C(=O)N[C@@H](CC(C)C)C(=O)N[C@@H](CC(N)=O)C(=O)N[C@@H](CO)C(=O)N[C@@H](CCSC)C(=O)N[C@@H](CCC(=O)O)C(=O)N[C@@H](CCCNC(=N)N)C(=O)N[C@H](C(=O)N[C@@H](CCC(=O)O)C(=O)N[C@@H](Cc1c[nH]c2ccccc12)C(=O)N[C@@H](CC(C)C)C(=O)N[C@@H](CCCNC(=N)N)C(=O)N[C@@H](CCCCN)C(=O)N[C@@H](CCCCN)C(=O)N[C@@H](CC(C)C)C(=O)N[C@@H](CCC(N)=O)C(=O)N[C@@H](CC(=O)O)C(=O)N[C@H](C(=O)N[C@@H](Cc1c[nH]cn1)C(=O)N[C@@H](CC(N)=O)C(=O)N[C@@H](Cc1ccccc1)C(N)=O)C(C)C)C(C)C [SEQ. ID. NO: 29] (H-SVSEIQL[X1]HNLGKHLNSMERVEWLRKKLQDVHNF-NH2; N-terminus assumed)
- EC50 [7, 12]: 0.4 ± 0.07 nM
- PTHR1 Activation: Derivative EC50/PTH EC50 [7]: 1.05
- EC50 [8, 13]: > 1000 nM
- PTHR2 Activation: Derivative EC50/PTH EC50 [8]: ***
- Tolerance Pattern of β AA [9]: *

Molecule: CC[C@H](C)[C@H](NC(=O)[C@H](CCC(=O)O)NC(=O)[C@H](CO)NC(=O)[C@@H](NC(=O)[C@@H](N)CO)C(C)C)C(=O)N[C@@H](CCC(N)=O)C(=O)N[C@@H](CC(C)C)C(=O)N[C@@H](CCSC)C(=O)N[C@@H](Cc1c[nH]cn1)C(=O)N[C@@H](CC(N)=O)C(=O)N[C@@H](CC(C)C)C(=O)NCC(=O)N[C@@H](CCCCN)C(=O)N[C@@H](Cc1c[nH]cn1)C(=O)N[C@@H](CC(C)C)C(=O)N[C@@H](CC(N)=O)C(=O)N[C@@H](CO)C(=O)N[C@@H](CCSC)C(=O)N[C@@H](CCC(=O)O)C(=O)N[C@@H](CCCNC(=N)N)C(=O)N[C@H](C(=O)N[C@@H](CCC(=O)O)C(=O)N[C@@H](Cc1c[nH]c2ccccc12)C(=O)N[C@@H](CC(C)C)C(=O)N[C@@H](CCCNC(=N)N)C(=O)N[C@@H](CCCCN)C(=O)N[C@@H](CCCCN)C(=O)N[C@@H](CC(C)C)C(=O)N[C@@H](CCC(N)=O)C(=O)N[C@@H](CC(=O)O)C(=O)N[C@H](C(=O)N[C@@H](Cc1c[nH]cn1)C(=O)N[C@@H](CC(N)=O)C(=O)N[C@@H](Cc1ccccc1)C(N)=O)C(C)C)C(C)C [PTH(1-34)-NH2, reference compound]
- Normalized ligand-off AUC ([10]; PTHR2, after washout, PTH(1-34)-NH2 = 100): 100
- Emax [10, 14]: 100%
- Emax ([7]; HEK293): 100%
- Normalized ligand-off AUC ([11]; PTHR1, after washout, PTH(1-34)-NH2 = 100): 100
- Emax [11, 14]: 100%
- Emax ([8]; HEK293): 100%
- EC50 [8, 13]: 0.97 nM
- EC50 ([8]; Table 5, HEK293 cells stably expressing PTHR2, read-out: PTHR2 EC50): 1.07 ± 0.14 nM
